Results from PubChem BioAssay AID179 (DTP/NCI, 2004).
Active and inactive are the calls of the source.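 The calls were made as follows: active = compounds giving half or more protection of infected cells from virus-caused growth loss, again on retest; inactive = the rest.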 Where a SMILES comes first, the peptide text is derived from it. [ ]: non-standard residue; d: D form. Phe(4-NO2) = N[CH](Cc1ccc([N+](=O)[O-])cc1)C(=O)O

System: CEM cells HIV-1 protection, formazan growth assay
Assay: NCI AIDS Antiviral Assay
Details: for IC50: measured here: growth of uninfected CEM cells
Method in brief: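 Protection of CEM cells against HIV-1 was scored from cell growth (soluble formazan) across five concentrations, with parallel uninfected cells. Lack of protection may reflect toxicity.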

Row | SMILES | EC50 | IC50 | outcome
1 | Cc1ccc(C(=O)N(C(C)C)C(C)C)cc1N=NN(C)C | > 123 µM | 97.7 µM | 
2 | COc1ccc2nc3c([N+](=O)[O-])ccc(NCCCN(C)C)c3c(NCCCN(C)C)c2c1 | > 200 µM | 0.229 µM | 
3 | COc1cc(-c2oc3c(OC)cc(OC)c(O)c3c(=O)c2OC)cc(OC)c1OC | > 200 µM | > 200 µM | 
4 | Cc1ccc(Nc2cn(COCc3ccccc3)c(=O)[nH]c2=O)cc1 | > 200 µM | > 200 µM | 
5 | CCOC(=O)/C(=C/c1ccc(C#N)cc1)N(CC)CC | > 251 µM | > 251 µM | 
6 | C[n+]1c(-c2ccc(NC(=O)c3ccc(C(=O)Nc4ccc(-c5cn6ccccc6[n+]5C)cc4)cc3)cc2)cn2ccccc21 | > 2.63 µM | 1.66 µM | 
7 | COc1ccc2c(c1)OC(C)(C)C1c3c(cc(OC)c(O)c3C)OC21 (configuration not stated) | > 200 µM | 9.33 µM | 
8 | FC1C2=C(SC1(F)F)C1CCC2C1 (configuration not stated) | > 200 µM | > 200 µM | 
9 | CCOP(=O)(OCC)/C(C#N)=C/c1cc(O)ccc1O | > 832 µM | 145 µM | 
10 | Cc1[nH]c(=O)nc(CC(O)(c2ccccc2)c2ccccc2)c1-c1ccccc1 | > 2.75 µM | > 2.75 µM | 
11 | Cc1ccc(NC(=O)Nc2sc(=S)c3c(c2C#N)CCCC3)c(C)c1 | > 58.9 µM | > 58.9 µM | 
12 | CC(O)CS(=O)(=O)O (configuration not stated) | > 200 µM | > 200 µM | 
13 | CCOC(=O)C(Cc1c[nH]c2cc([N+](=O)[O-])ccc12)NS(=O)(=O)c1ccc2ccccc2c1 (configuration not stated) | > 15.5 µM | > 15.5 µM | 
14 | CC(C)(C)CC1=CC(=O)C(C2=CC(=O)C(CC(C)(C)C)=CC2=O)=CC1=O | > 2 µM | > 2 µM | 
15 | OC12CCCCCC1(N1CCOCC1)c1ccccc12 (configuration not stated) | > 200 µM | > 200 µM | 
16 | C/C(=C/OS(=O)(=O)C(F)(F)F)c1ccccc1 | > 200 µM | 57.5 µM | 
17 | COC1C=CC(O)C(CO)O1 (configuration not stated) |  |  | inactive
18 | C1C2OC2C2C1C1CC2C2OC12 (configuration not stated) | > 1510 µM | > 1510 µM | 
19 | c1ccc(C2=NCCc3cc4c(cc32)OCO4)cc1 | > 200 µM | 141 µM | 
20 | CCN(CC)CCCNc1nc2ccccc2c2c1ncn2CC(C)C | > 200 µM | 41.7 µM | 
21 | O=C(OCCN=c1c2ccccc2ccc2ccccc12)c1ccc([N+](=O)[O-])cc1 | > 200 µM | > 200 µM | 

Row | SMILES | EC50 | IC50 | outcome
22 | O=C1/C(=C/c2ccc(OC(=O)c3ccc(Cl)cc3)cc2)CCC/C1=C\c1ccc(OC(=O)c2ccc(Cl)cc2)cc1 | > 100 µM | > 100 µM | 
23 | CC#CC(O)(C(=O)OCCCN(C)C)C1CCCCC1 (configuration not stated) | > 200 µM | > 200 µM | 
24 | C=C(c1nc2ccc(Cl)cc2[nH]c1=O)C(O)c1ccc(C(O)C(=O)c2nc3ccc(Cl)cc3[nH]c2=O)cc1 (configuration not stated) | > 162 µM | 12 µM | 
25 | CCCCCCCCCCCCCCCCCCNC(=O)OCC(CNS(=O)(=O)CCC[n+]1cccc2ccccc21)COC (configuration not stated) | > 200 µM | 0.676 µM | 
26 | Cc1ccc(N2C(=O)N(c3ccc(C)cc3)C3(Sc4ccccc4N3C)C2=O)cc1 (configuration not stated) | > 12.6 µM | > 12.6 µM | 
27 | C=CCN1/C(=C(\C#N)c2nc3ccccc3[nH]2)Sc2c1nc[nH]c2=O | > 10.7 µM | > 10.7 µM | 
28 | Cn1c(=O)n(-c2c3ccccc3c(Cl)c3ccccc23)n(C(C)(C)C)c1=O | > 100 µM | > 100 µM | 
29 | CC(=O)NC1C(CO)O[C@@H]2OC(C)(C)O[C@H]12 (some centres not stated) | > 200 µM | > 200 µM | 
30 | O=C(O)c1cc(O)c2c(=O)c3c(O)cc(O)c4c5c(O)cc(O)c6c(=O)c7c(O)cc(C(=O)O)c8c1c2c(c34)c(c65)c78 |  |  | inactive
31 | CC#CCC(OC(C)=O)c1ccccc1 (configuration not stated) |  |  | inactive
32 | CCCN1CC=C(c2cc(C(=O)OCC)[nH]c2-c2cc(C)no2)C1=O | > 200 µM | 107 µM | 
33 | CN(CCN(C)C(=O)CCn1ccc(=O)[nH]c1=O)C(=O)CCn1ccc(=O)[nH]c1=O | > 32.4 µM | > 32.4 µM | 
34 | CC(C)c1ccc(C2NC(=S)NC3=C2c2ccccc2C3=O)cc1 (configuration not stated) | > 107 µM | 14.8 µM | 
35 | CON(C)C(=O)C1CCCO1 (configuration not stated) | > 200 µM | > 200 µM | 
36 | Cc1cc(S(=O)(=O)/N=C(/NN)NNc2cccc(C(F)(F)F)n2)c(S)cc1Cl | > 200 µM | 42.7 µM | 
37 | CC1=CC(=O)/C(=C/n2c(=S)[nH]c3ccc([N+](=O)[O-])cc32)C(=O)O1 | > 1000 µM | 178 µM | 
38 | CC(C)(c1cccs1)c1cscc1C(=O)O | > 200 µM | > 200 µM | 
39 | CC(C)OC(=O)c1ccc(NCc2cc(O)ccc2O)cc1Cl | > 200 µM | 3.63 µM | 
40 | Cc1cc2[nH]c3[nH]c(=O)[nH]c(=O)c3c2cc1C | > 200 µM | 170 µM | 
41 | COC(=O)c1c(C)cccc1C1CN=NC12Cc1ccc(C)c(C)c1C2=O (configuration not stated) | > 200 µM | 15.1 µM | 
42 | C(/C=C\c1ccccc1)=NCCCCCCN=C/C=C/c1ccccc1 | > 20 µM | 12.3 µM | 

Row | SMILES | EC50 | IC50 | outcome
43 | CCOC(=O)/C(F)=C/c1cccc([N+](=O)[O-])c1 | > 151 µM | > 151 µM | 
44 | C=C(Cc1ccc(O)cc1)C(=C)Cc1ccc(O)cc1 | > 200 µM | 69.2 µM | 
45 | N#CC(F)(F)C(F)(F)C(F)(F)C(F)(F)C(F)(F)C(F)(F)C(F)(F)F | > 200 µM | > 200 µM | 
46 | Cn1nc(-c2ccccc2)c2c(/C=C/c3ccccc3)onc2c1=O |  |  | inactive
47 | COC1C(C)OC(OC2CC(C)(O)C(C(=O)O)c3cc4c(c(O)c32)C(=O)c2c(O)cc3c(c2C4=O)OC2OC3(C)C(O)C(N(C)C)C2O)C(OC)C1(C)OC (configuration not stated) |  |  | inactive
48 | CN(C)/N=N/c1nc2c(c(=O)n(C)c(=O)n2C)n1CC1CO1 (configuration not stated) | > 200 µM | 12 µM | 
49 | O=S(=O)(O)CO | > 200 µM | 151 µM | 
50 | O=C1Nc2ccccc2/C1=c1/sc2nc3ccccc3n2c1=O |  |  | inactive
51 | CCC1CC2CN3CCc4c([nH]c5ccc(OC)cc45)C(C(=O)OC)(C2)C13 (configuration not stated) |  |  | inactive
52 | CCOC(=O)/C(C#N)=C/c1ccnc2ccccc12 | > 200 µM | 3.8 µM | 
53 | O=C(O)/C=C/S(=O)(=O)O | > 200 µM | > 200 µM | 
54 | COc1cc(O)c2c(c1)C(=O)c1cc3c(c(O)c1C2=O)C(OC1OC(C)C(O)C(O)C1OC)C(OC)C(C)(O)C3=O (configuration not stated) | > 200 µM | 3.16 µM | 
55 | Cc1nnc2sc3c(Cl)c4nn5c(C)nnc5sc4c(Cl)c3nn12 | > 200 µM | 2.95 µM | 
56 | CCCC[C@H]1C(=O)O[C@H](C)[C@H](NC(=O)c2cccc(NC=O)c2O)C(=O)O[C@@H](C)[C@@H]1OC(=O)CC(C)C | > 1 µM | 0.0389 µM | 
57 | CCCc1[nH]c(SCCCCCCCCSc2nc(-c3ccc(F)cc3)c(CCC)[nH]2)nc1-c1ccc(F)cc1 | > 9.33 µM | > 9.33 µM | 
58 | COC1OC(C(C)O)C2OC(C)(C)OC12 (configuration not stated) | > 200 µM | > 200 µM | 
59 | NC(N)=NS(=O)(=O)c1ccc(N=c2c3ccccc3n(Cc3ccccc3)c3ccccc23)cc1 |  |  | inactive
60 | C=C(C)C(=O)OC1C[C@H](COC(C)=O)C2CC=C(CO)C2C2OC(=O)C(=C)[C@H]12 (some centres not stated) | > 200 µM | 9.12 µM | 
61 | COc1nc(N(C)C)nc2c1n(C)c[n+]2C | > 107 µM | 12.6 µM | 
62 | CC(=O)O[C@H]1CC[C@H]2[C@@H]3CCC4=C/C(=N/OCCN(C)C)CC[C@]4(C)[C@H]3CC[C@]12C | > 200 µM | 0.955 µM | 
63 | COC(=O)CCC(NC(=O)C(CCC(=O)OC)NC(=O)C(CCC(=O)OC)NC(=O)C(CCC(=O)OC)NC(=O)C(CCC(=O)OC)NC(=O)C(Cc1ccc([N+](=O)[O-])cc1)NC(=O)C(CCC(=O)OC)NC(=O)C(CCC(=O)OC)NC(=O)C(CCC(=O)OC)NC(=O)C(CCC(=O)OC)NC(=O)C(CCC(=O)OC)NC(C)=O)C(N)=O (configuration not stated) (Ac-E(OMe)E(OMe)E(OMe)E(OMe)E(OMe)[Phe(4-NO2)]E(OMe)E(OMe)E(OMe)E(OMe)E(OMe)-NH2; configuration not given here) | > 100 µM | > 100 µM | 

Row | SMILES | EC50 | IC50 | outcome
64 | O=c1[nH]c2nc3ccccc3c(=O)n2/c1=C/c1cccs1 | > 200 µM | 110 µM | 
65 | BrCCC[P+](c1ccccc1)(c1ccccc1)c1ccccc1 | > 20 µM | 0.912 µM | 
66 | CCCCCCC(c1cc(Cl)c(OC)c(C(=O)OC)c1)c1cc(Cl)c(OC)c(C(=O)OC)c1 | > 36.3 µM | > 36.3 µM | 
67 | CCN1CCC(O)(/C=C/c2ccccc2)C(C(=O)/C=C/c2ccccc2)C1 (configuration not stated) |  |  | inactive
68 | O=C1OCCC[C@H]2O[C@@H](COCc3ccccc3)C[C@@H]12 | > 200 µM | > 200 µM | 
69 | C1CCC(CC[N+]23CC[N+](CCC4CCCC4)(CC2)C3)C1 | > 692 µM | 347 µM | 
70 | O=C1NN(C2=NNC3(C(=O)N2)c2ccccc2-c2ccccc23)C(c2ccccc2)=N/C1=C/c1ccc(Cl)cc1 | > 100 µM | 70.8 µM | 
71 | CC(C(=O)Oc1ccc2ccccc2c1-c1c(O)ccc2ccccc12)c1ccccc1 (configuration not stated) | > 2.51 µM | > 2.51 µM | 
72 | O=C(C=Nc1ccccc1C(=O)[O-])c1ccco1.O=C(C=Nc1ccccc1C(=O)[O-])c1ccco1.[Zn+2] | > 1.38 µM | > 1.38 µM | 
73 | Cc1cc2nc(CCC(=O)O)c(=O)[nH]c2cc1C | > 1000 µM | > 1000 µM | 
74 | NCCSC12CC3CC(CC(C3)C1)C2 | > 200 µM | 67.6 µM | 
75 | CCOC(=O)c1nc2cc(C(F)(F)F)ccc2nc1Oc1ccc(C#N)cc1 | > 200 µM | 93.3 µM | 
76 | COC(=O)[C@@H]1C[C@]2(CC=O)c3ccccc3N(S(=O)(=O)c3ccccc3)[C@@H]2N1C(=O)OC | > 100 µM | 70.8 µM | 
77 | CCC1=CCN(c2cc(C)ccn2)OC1c1ccc(OC)cc1 (configuration not stated) | > 32.4 µM | > 32.4 µM | 
78 | CCOC(=O)N/N=C(/N)c1cccc([N+](=O)[O-])c1 | > 200 µM | > 200 µM | 
79 | C[C@]12CCC3[C@@H](CC[C@@H]4c5nonc5CC[C@]34C)C1CCC(=O)N2 (some centres not stated) | > 97.7 µM | > 97.7 µM | 
80 | NCCSSCCN |  |  | active
81 | CC(C)(CO)N=Cc1ccccc1[O-].CC(C)(CO)N=Cc1ccccc1[O-].[Co+2] | > 151 µM | > 151 µM | 
82 | COc1ccc(-c2coc3cc(O)ccc3c2=O)c(O)c1OC | > 200 µM | 14.8 µM | 
83 | CSc1ccc(Cc2cc(C(C)(C)C)cc(C(C)(C)C)c2O)cc1 |  |  | inactive
84 | O=C(NCCCCNCCCNC(=O)C(F)(F)F)C(F)(F)F | > 200 µM | > 200 µM | 
